Measured values: US8613941B1, “Synergistic antimicrobial composition” (Dow Global Technologies LLC, priority 2012, dated 2013)

Legend:
oilfield SRB consortium = assay: Biocidal efficacy against anaerobic bacteria for a high temperature and sulfide-rich environment; format: cell-based, sulfate reducing bacteria (SRB); settings: alone or in the blend, 80° C., 7 days, 10 ppm sulfide ion, 10^4 to 10^5 CFU/mL
Method: Inside an anaerobic chamber (BACTRON IV), biocides solutions were challenged with 10^4 to 10^5 CFU/mL of an oilfield SRB consortium and 10 ppm sulfide ion (added in the form of sodium sulfide). The biocide solutions were then incubated at 80° C. under anaerobic condition for 7 days. Then the biocidal efficacy was evaluated against the field SRB consortium. The biocidal efficacy was determined by the biocide dosage required for 99.999% bacterial reduction. Synergy Index was then calculated. Table 2 summarizes the efficacy of each biocide and their blends, and the Synergy Index* of each combination.

[1] = test system: oil field isolated anaerobic consortium, mainly SRB; assay: Biocidal efficacy (MBC) of THPS, Tris Nitro and combination against sulfate reducing bacteria; format: cell-based, sulfate reducing bacteria (SRB); settings: alone or in the blend, minimum tested biocide concentration for bacteria kill, 40° C., 24 hours, 10^6 to 10^7 CFU/mL
Method: Inside an anaerobic chamber (BACTRON anaerobic chamber), a deaerated sterile salt solution (3.1183 g of NaCl, 1.3082 mg of NaHCO3, 47.70 mg of KCl, 72.00 mg of CaCl2, 54.49 mg of MgSO4, 172.28 mg of Na2SO4, 43.92 mg of Na2CO3 in 1 L water) was contaminated with an oil field isolated anaerobic consortium, mainly SRB, at final bacterial concentrations of 10^6 to 10^7 CFU/mL. The aliquots of this contaminated water were then treated with THPS and Tris Nitro, or the THPS/Tris Nitro combination at different active concentration levels. After the mixtures were incubated at 40° C. for 24 hours, the biocidal efficacy was determined by minimum tested biocide concentration for bacteria kill in the aliquots (MBC). Table 1 summarizes the efficacy of each biocide and their blends, and the Synergy Index* of each combination.

Compound | Concentration (active ppm) required for 99.999% bacterial reduction, Tris Nitro (oilfield SRB consortium; Tris Nitro concentration) [active ppm] | Average MBC (active ppm), Tris Nitro ([1]; Tris Nitro concentration) [active ppm] | Concentration (active ppm) required for 99.999% bacterial reduction, THPS (oilfield SRB consortium; THPS concentration) [active ppm] | Average MBC (active ppm), THPS ([1]; THPS concentration) [active ppm]
O=[N+]([O-])C(CO)(CO)CO [0:1, tris(hydroxymethyl)nitromethane] | 360 | 46.1 |  | 
tetrakis(hydroxymethyl)phosphonium sulfate [1:0] |  |  | 360.0 | 6.1
